Among the data in patent US6872711B2, “β-substituted β-aminoethyl phosphonate derivatives” (Ilex Oncology Research S.A., priority 2000, dated 2005) are inhibition and melting point values, retold here.

Series [1] relates to apo(a) secretion in primary cultures of Cynomolgus hepatocytes. Description: Lowering the production of apo(a) in primary cultures of Cynomolgus hepatocytes (ELISA of culture medium). Type of series: cell-based, Cynomolgus monkeys. The conditions noted are these: Macaca fascicularis, Hepatocyte, tested at 20 μM, 6-24 hours incubation, one range stated for all listed compounds, read-out: lowering of apo(a) secretion (change vs control plates). The procedure:
The compounds of formula (I) were assayed for lowering the production of apo(a) in primary cultures of Cynomolgus hepatocytes.
Protocol: Hepatocytes were isolated from livers of male adult Cynomolgus monkeys by the two-step collagenase perfusion method according to C. Guguen-Guillouzo and A. Guillouzo “Methods for preparation of adult and fetal hepatocytes” p.1-12in “Isolated and Cultured Hepatocytes,” les editions Inserm Paris and John Libbey Eurotext London (1986).
The viability of cells was determined by Trypan blue staining. The cells were then seeded at a density of 1.5-2.10^5 viable cells per 2 cm^2 in 24 well tissue culture plates in a volume of 500 μl per well of Williams E tissue culture medium containing 10% fetal calf serum. Cells were incubated for 6-24 hours at 37° C. in a CO2 incubator (5% CO2) in the presence of 20 μM of the test compounds dissolved in ethanol. Four wells were used for each compound. Nicotinic acid and steroid hormones were used as references to validate the assay system since they are known to decrease Lp(a) in man. Control cells were incubated in the presence of ethanol only.
The amount of Lp(a) secreted in culture medium was directly assayed by ELISA using a commercially available kit. Cells were washed and lysed as described by A. L. White et al., Journal of Lipid Research vol. 34, p. 509-517, (1993) and the cellular content of Lp(a) was assayed as described above. Changes in Lp(a) concentration in culture medium are given as the percentage of value measured for the control plates.
Background: In an ELISA, binding on a coated surface is turned into a signal by an enzyme label.

Structures are written as SMILES.

What is called melting point is the temperature, or range, at which the solid turns liquid. The compound `CCOP(=O)(CC(Nc1cccnc1)c1cc(C)c(O)c(OC)c1)OCC` (stereo not drawn) [Compound 9, diethyl β-(4-hydroxy-3-methoxy-5-methylphenyl)-β-[N-(3-pyridyl)-amino]-ethylphosphonate] yielded a melting point of 156 to 158 °C. Also, the inhibition at 20 µM in series [1] was 10 to 35%.

Regarding `Cc1cc(C(CP(=O)(OC(C)C)OC(C)C)Nc2cccnc2)cc(C)c1O` (stereo not drawn) [Compound 17, diisopropyl β-(3,5-dimethyl-4-hydroxyphenyl)-β-[N-(3-pyridyl)-amino]-ethylphosphonate], the melting point is 104 to 105 °C. Moreover, in series [1], the inhibition at 20 µM was 10 to 35%.

In the case of `CCOc1cc(C(CP(=O)(OC(C)C)OC(C)C)Nc2cccnc2)cc(C)c1O` (stereo not drawn) [Compound 21, diisopropyl β-(3-ethoxy-4-hydroxy-5-methylphenyl)-β-[N-(3-pyridyl)-amino]-ethylphosphonate], the melting point was in the range of 148 to 150 °C. The inhibition at 20 µM in series [1] fell in the range of 10 to 35%.

Take `CCOP(=O)(CC(Nc1cccnc1)c1cc(C)c(O)c(C)c1)OCC` (stereo not drawn) [Compound 16, diethyl β-(3,5-dimethyl-4-hydroxyphenyl)-β-[N-(3-pyridyl)-amino]-ethylphosphonate]: the melting point was in the range of 98 to 101 °C. The inhibition at 20 µM in series [1] is 10 to 35%.

On to `CCOP(=O)(CC(Nc1cccnc1)c1ccc(C)c(O)c1C)OCC` (stereo not drawn) [Compound 31, diethyl β-(2,4-dimethyl-3-hydroxyphenyl)-β-[N-(3-pyridyl)-amino]-ethylphosphonate], for which the inhibition at 20 µM in series [1] lay within 10 to 35%.

`COc1cc(C(CP(=O)(OC(C)C)OC(C)C)Nc2cccnc2)cc(OC)c1OC` (stereo not drawn) [Compound 19, diisopropyl β-(3,4,5-trimethoxyphenyl)-β-[N-(3-pyridyl)-amino]-ethylphosphonate] gave a melting point of 96 to 98 °C. Also, the inhibition at 20 µM in series [1] was 10 to 35%.

In the case of `CCOP(=O)(CC(Nc1cccnc1)c1cc(OC)c(CO)c(OC)c1)OCC` (stereo not drawn) [Compound 37, diethyl β-(3,5-dimethoxy-4-hydroxymethylphenyl)-β-[N-(3-pyridyl)-amino]-ethylphosphonate], the inhibition at 20 µM in series [1] lay in the range of 10 to 35%.

The compound `CCOP(=O)(CC(Nc1cccnc1)c1cc(OC)c(OC)c(OC)c1)OCC` (stereo not drawn) [Compound 18, diethyl β-(3,4,5-trimethoxyphenyl)-β-[N-(3-pyridyl)-amino]-ethylphosphonate] had a melting point of 104 to 106 °C. Further, in series [1], the inhibition at 20 µM lay within 10 to 35%.

Take `CCOP(=O)(CC(Nc1cccnc1)c1cc(O)c(C)c(OC)c1)OCC` (stereo not drawn) [Compound 34, diethyl β-(3-hydroxy-5-methoxy-4-methylphenyl)-β-[N-(3-pyridyl)-amino]-ethylphosphonate]: the melting point lay in the range of 146 to 147 °C. For the same compound, the inhibition at 20 µM in series [1] lay within 10 to 35%.

As to `COc1cc(C(CP(=O)(OC(C)C)OC(C)C)Nc2cccnc2)cc(OC)c1O` (stereo not drawn) [Compound 2, diisopropyl β-(3,5-dimethoxy-4-hydroxyphenyl)-β-[N-(3-pyridyl)-amino]-ethylphosphonate], the melting point was 138 to 140 °C. For the same compound, the inhibition at 20 µM in series [1] fell in the range of 10 to 35%.

For the compound `COc1cc(C(CP(=O)(OC(C)C)OC(C)C)Nc2cccnc2)cc(C)c1O` (stereo not drawn) [Compound 10, diisopropyl β-(4-hydroxy-3-methoxy-5-methylphenyl)-β-[N-(3-pyridyl)-amino]-ethylphosphonate], the melting point fell in the range of 135 to 137 °C. In addition, the inhibition at 20 µM in series [1] lay within 10 to 35%.

In turn, `CCOP(=O)(CC(Nc1cccnc1)c1cc(OC)c(O)c(OC)c1)OCC` (stereo not drawn) [Compound 1, diethyl β-(3,5-dimethoxy-4-hydroxyphenyl)-β-[N-(3-pyridyl)-amino]-ethylphosphonate] displayed a melting point of 164 to 166 °C. Further, the inhibition at 20 µM in series [1] lay within 10 to 35%.

As to `CCOc1cc(C(CP(=O)(OCC)OCC)Nc2cccnc2)cc(C)c1O` (stereo not drawn) [Compound 20, diethyl β-(3-ethoxy-4-hydroxy-5-methylphenyl)-β-[N-(3-pyridyl)-amino]-ethylphosphonate], the melting point is 162 to 164 °C. Further, in series [1], the inhibition at 20 µM was 10 to 35%.

For `CCOP(=O)(CC(Nc1cccnc1)c1cc(C(C)(C)C)c(OC)c(C(C)(C)C)c1)OCC` (stereo not drawn) [Compound 30, diethyl β-(3,5-di-tert-butyl-4-methoxyphenyl)-β-[N-(3-pyridyl)-amino]-ethylphosphonate], the inhibition at 20 µM in series [1] lay in the range of 10 to 35%.
